Measured values from article PMC3201759 (Journal of proteome research, 2011).
pIC50: −log10 of the molar value. Read-outs that look alike come from different tables or passages of the source.

Biological target: T1, mouse Oat1 (mOat1; Oat1/Slc22a6) (Mus musculus, UniProt Q8VC69)
T1 sequence (Q8VC69 1-545): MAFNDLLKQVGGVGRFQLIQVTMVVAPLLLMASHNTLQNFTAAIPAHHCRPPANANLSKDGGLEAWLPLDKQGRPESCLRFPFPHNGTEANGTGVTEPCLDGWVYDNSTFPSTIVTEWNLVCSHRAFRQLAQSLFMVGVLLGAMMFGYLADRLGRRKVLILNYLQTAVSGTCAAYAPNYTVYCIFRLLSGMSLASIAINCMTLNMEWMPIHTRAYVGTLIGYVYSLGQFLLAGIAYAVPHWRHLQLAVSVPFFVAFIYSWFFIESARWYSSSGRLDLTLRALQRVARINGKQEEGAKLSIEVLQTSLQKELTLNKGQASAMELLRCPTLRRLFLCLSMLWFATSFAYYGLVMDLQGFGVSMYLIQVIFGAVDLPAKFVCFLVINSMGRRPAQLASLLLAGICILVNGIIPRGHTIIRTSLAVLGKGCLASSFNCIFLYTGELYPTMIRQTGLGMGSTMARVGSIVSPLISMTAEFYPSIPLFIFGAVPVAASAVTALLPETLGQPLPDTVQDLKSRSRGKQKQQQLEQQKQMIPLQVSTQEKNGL
Assay: inhibition of 6-carboxyfluorescein uptake, Xenopus oocytes
Assay type: cell-based

pIC50	pIC50 (30 μM 6-carboxyfluorescein tracer, 1 h incubation)	Structure (SMILES)
4.30	–	O=C(O)c1cc(O)c2cccc(O)c2n1 [xanthurenic acid]
4.92	–	Nc1ccccc1C(=O)C[C@H](N)C(=O)O [kynurenine]
–	4.66	O=c1c2ncccc2[nH]c2c([N+](=O)[O-])c(O)c([N+](=O)[O-])c(O)c12 [CAS 5435-73-4]
